This passage reports IC50 results from article PMC9145193 (Molecules, 2022).

This experiment addresses T1, AChE enzyme from electrophorus electricus (eeAChE) (Electrophorus electricus, UniProt O42275).
T1 construct: purchased Merck C3389
In words: biochemical. The conditions noted are these: mean ± SEM from three independent experiments. Here is the method:
Donepezil was used as a positive control.
AChE activity was measured by the […] using AChE enzyme from electrophorus electricus (eeAChE) (C3389, Merck, Kenilworth, NJ, USA). AChE solution (2 U/mL) was prepared with 0.1 M phosphate buffer (pH 8.0) firstly. Varied concentrations of test compounds (20 μL), 1 mM 5′-dithiobis (2-nitrobenzoic acid) (DTNB) solution (100 μL), and AChE solution (40 μL) were added in order to each well of a 96-well plate. After incubation for 15 min at 37 °C, the reaction was initiated by adding 20 μL of acetylthiocholine iodide (1 mM) to the mixed solution. The absorbance of each plate was instantly measured at 405 nm using a microplate reader. The inhibition of each compound was estimated using the formula (1−Ai/Ac) × 100, where Ai and Ac represent the absorbance of AChE in the presence and absence of inhibitors, respectively. Each experiment was replicated three times. Plotting curves of log concentration via percentage of inhibition, the IC50 values of all tested compounds were graphically analyzed (Graph Pad Prism 8.0).

T1 sequence (O42275 24-633): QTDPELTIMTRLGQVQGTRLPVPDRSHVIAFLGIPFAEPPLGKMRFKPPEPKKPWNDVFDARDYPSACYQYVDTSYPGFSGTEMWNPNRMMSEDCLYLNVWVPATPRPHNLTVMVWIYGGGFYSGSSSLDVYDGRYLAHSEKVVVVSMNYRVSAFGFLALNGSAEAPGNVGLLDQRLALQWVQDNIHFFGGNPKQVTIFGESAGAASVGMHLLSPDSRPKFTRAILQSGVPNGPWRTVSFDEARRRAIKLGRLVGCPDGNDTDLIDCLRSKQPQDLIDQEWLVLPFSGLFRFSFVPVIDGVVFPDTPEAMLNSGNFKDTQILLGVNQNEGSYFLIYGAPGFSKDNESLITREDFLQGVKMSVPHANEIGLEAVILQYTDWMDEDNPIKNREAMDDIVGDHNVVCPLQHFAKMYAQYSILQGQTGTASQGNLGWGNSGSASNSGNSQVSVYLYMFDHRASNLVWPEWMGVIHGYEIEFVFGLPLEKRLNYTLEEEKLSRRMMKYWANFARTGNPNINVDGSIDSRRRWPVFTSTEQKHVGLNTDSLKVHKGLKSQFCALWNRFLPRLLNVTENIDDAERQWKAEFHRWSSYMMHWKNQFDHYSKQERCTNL

With `COc1cc2c(cc1OC)C(=O)/C(=C/c1cc[n+](Cc3ccccc3Br)cc1C(C)=O)OC2` [10h, (Z)-3-Acetyl-1-(2-bromobenzyl)-4-((6,7-dimethoxy-4-oxoisochroman-3-ylidene)methyl)pyridin-1-ium Bromide], half-maximal inhibition (IC50) required 6.22 ± 0.05 nM. The value for `COc1cc2c(cc1OC)C(=O)/C(=C/c1cc[n+](Cc3ccc(Cl)cc3)cc1C(C)=O)OC2` [10g, (Z)-3-Acetyl-1-(4-chlorobenzyl)-4-((6,7-dimethoxy-4-oxoisochroman-3-ylidene)methyl)pyridin-1-ium Bromide] was 67.3 ± 2.68 nM; that for `COc1cc2c(cc1OC)C(=O)/C(=C/c1cc[n+](Cc3cccc(Cl)c3)cc1C(N)=O)OC2` [13f, (Z)-3-Carbamoyl-1-(3-chlorobenzyl)-4-((6,7-dimethoxy-4-oxoisochroman-3-ylidene)methyl)pyridin-1-ium Bromide] was 26.7 ± 0.28 nM.

Consider `COc1cc2c(cc1OC)C(=O)/C(=C/c1cc[n+](Cc3ccccc3C)cc1C(N)=O)OC2` [13k, (Z)-3-Carbamoyl-4-((6,7-dimethoxy-4-oxoisochroman-3-ylidene)methyl)-1-(2-methylbenzyl)pyridin-1-ium Bromide], for which inhibition was half-maximal at 12.1 ± 0.9 nM (IC50). Take `COc1cc2c(cc1OC)C(=O)/C(=C/c1cc[n+](Cc3ccccc3)cc1C(N)=O)OC2` [13a, (Z)-1-Benzyl-3-carbamoyl-4-((6,7-dimethoxy-4-oxoisochroman-3-ylidene)methyl)pyridin-1-ium Bromide]: the IC50 came to 8.63 ± 0.06 nM. For `COc1cc2c(cc1OC)C(=O)/C(=C/c1cc[n+](Cc3ccc(Cl)cc3)cc1C(N)=O)OC2` [13g, (Z)-3-Carbamoyl-1-(4-chlorobenzyl)-4-((6,7-dimethoxy-4-oxoisochroman-3-ylidene)methyl)pyridin-1-ium Bromide], 188 ± 4.78 nM corresponded to half-maximal inhibition (IC50). The compound `COc1cc2c(cc1OC)C(=O)/C(=C/c1cc[n+](Cc3cccc(C)c3)cc1C(C)=O)OC2` [10l, (Z)-3-Acetyl-4-((6,7-dimethoxy-4-oxoisochroman-3-ylidene)methyl)-1-(3-methylbenzyl)pyridin-1-ium Bromide] yielded an IC50 of 6.61 ± 0.81 nM. The value for `COc1cc2c(cc1OC)C(=O)/C(=C/c1cc[n+](Cc3ccccc3C(F)(F)F)cc1C(N)=O)OC2` [13n, (Z)-3-Carbamoyl-4-((6,7-dimethoxy-4-oxoisochroman-3-ylidene)methyl)-1-(2-(trifluoromethyl)benzyl)pyridin-1-ium Bromide] was 30.7 ± 0.71 nM. The value for `COc1cc2c(cc1OC)C(=O)/C(=C/c1cc[n+](Cc3ccccc3C)cc1C(C)=O)OC2` [10k, (Z)-3-Acetyl-4-((6,7-dimethoxy-4-oxoisochroman-3-ylidene)methyl)-1-(2-methylbenzyl)pyridin-1-ium Bromide] was 4.8 ± 0.26 nM; that for `COc1cc2c(cc1OC)C(=O)/C(=C/c1cc[n+](Cc3ccc(F)cc3)cc1C(C)=O)OC2` [10d, (Z)-3-Acetyl-4-((6,7-dimethoxy-4-oxoisochroman-3-ylidene)methyl)-1-(4-fluorobenzyl)pyridin-1-ium Bromide] was 7.69 ± 0.35 nM; that for `COc1cc2c(cc1OC)C(=O)/C(=C/c1cc[n+](Cc3cccc(F)c3)cc1C(N)=O)OC2` [13c, (Z)-3-Carbamoyl-4-((6,7-dimethoxy-4-oxoisochroman-3-ylidene)methyl)-1-(3-fluorobenzyl)pyridin-1-ium Bromide] was 6.02 ± 0.08 nM. Regarding `COc1cc2c(cc1OC)C(=O)/C(=C/c1cc[n+](Cc3cccc(Br)c3)cc1C(C)=O)OC2` [10i, (Z)-3-Acetyl-1-(3-bromobenzyl)-4-((6,7-dimethoxy-4-oxoisochroman-3-ylidene)methyl)pyridin-1-ium Bromide], the half-maximal inhibitory concentration (IC50) was determined as 11 ± 0.82 nM. The value for `COc1cc2c(cc1OC)C(=O)/C(=C/c1cc[n+](Cc3cccc(C(F)(F)F)c3)cc1C(C)=O)OC2` [10r, (Z)-3-Acetyl-4-((6,7-dimethoxy-4-oxoisochroman-3-ylidene)methyl)-1-(3-(trifluoromethyl)benzyl)pyridin-1-ium Bromide] was 25.3 ± 2.2 nM. On to `COc1cc2c(cc1OC)C(=O)/C(=C/c1cc[n+](Cc3ccc(F)cc3)cc1C(N)=O)OC2` [13d, (Z)-3-Carbamoyl-4-((6,7-dimethoxy-4-oxoisochroman-3-ylidene)methyl)-1-(4-fluorobenzyl)pyridin-1-ium Bromide], for which half-maximal inhibition (IC50) required 8.25 ± 0.13 nM. Under `COc1cc2c(cc1OC)C(=O)/C(=C/c1cc[n+](Cc3ccc(C(F)(F)F)cc3)cc1C(C)=O)OC2` [10s, (Z)-3-Acetyl-4-((6,7-dimethoxy-4-oxoisochroman-3-ylidene)methyl)-1-(4-(trifluoromethyl)benzyl)pyridin-1-ium Bromide] stands 326 ± 9.01 nM. On to `COc1cc2c(cc1OC)C(=O)/C(=C/c1cc[n+](Cc3ccccc3Cl)cc1C(N)=O)OC2` [13e, (Z)-3-Carbamoyl-1-(2-chlorobenzyl)-4-((6,7-dimethoxy-4-oxoisochroman-3-ylidene)methyl)pyridin-1-ium Bromide], for which the IC50 stood at 17.6 ± 0.3 nM. The value for `COc1cc2c(cc1OC)C(=O)/C(=C/c1cc[n+](Cc3ccccc3F)cc1C(C)=O)OC2` [10b, (Z)-3-Acetyl-4-((6,7-dimethoxy-4-oxoisochroman-3-ylidene)methyl)-1-(2-fluorobenzyl)pyridin-1-ium Bromide] was 3.32 ± 0.21 nM; that for `COc1cc2c(cc1OC)C(=O)/C(=C/c1cc[n+](Cc3ccc(Br)cc3)cc1C(C)=O)OC2` [10j, (Z)-3-Acetyl-1-(4-bromobenzyl)-4-((6,7-dimethoxy-4-oxoisochroman-3-ylidene)methyl)pyridin-1-ium Bromide] was 75.7 ± 3.18 nM; that for `COc1cc2c(cc1OC)C(=O)/C(=C/c1cc[n+](Cc3cccc(F)c3)cc1C(C)=O)OC2` [10c, (Z)-3-Acetyl-4-((6,7-dimethoxy-4-oxoisochroman-3-ylidene)methyl)-1-(3-fluorobenzyl)pyridin-1-ium Bromide] was 4.03 ± 0.23 nM. In turn, `COc1cc2c(cc1OC)C(=O)/C(=C/c1cc[n+](Cc3ccccc3Br)cc1C(N)=O)OC2` [13h, (Z)-1-(2-Bromobenzyl)-3-carbamoyl-4-((6,7-dimethoxy-4-oxoisochroman-3-ylidene)methyl)pyridin-1-ium Bromide] had a half-inhibitory concentration (IC50) of 21.7 ± 0.32 nM. Under `COc1cc2c(cc1OC)C(=O)/C(=C/c1cc[n+](Cc3ccc(C)cc3)cc1C(N)=O)OC2` [13m, (Z)-3-Carbamoyl-4-((6,7-dimethoxy-4-oxoisochroman-3-ylidene)methyl)-1-(4-methylbenzyl)pyridin-1-ium Bromide] stands 42.47 ± 0.25 nM.

The compound `COc1cc2c(cc1OC)C(=O)/C(=C/c1cc[n+](Cc3ccccc3Cl)cc1C(C)=O)OC2` [10e, (Z)-3-Acetyl-1-(2-chlorobenzyl)-4-((6,7-dimethoxy-4-oxoisochroman-3-ylidene)methyl)pyridin-1-ium Bromide] had an IC50 of 5.86 ± 0.86 nM.

As for `COc1cc2c(cc1OC)C(=O)/C(=C/c1cc[n+](Cc3cccc(C)c3)cc1C(N)=O)OC2` [13l, (Z)-3-Carbamoyl-4-((6,7-dimethoxy-4-oxoisochroman-3-ylidene)methyl)-1-(3-methylbenzyl)pyridin-1-ium Bromide], the IC50 is 16.26 ± 0.12 nM. Take `COc1cc2c(cc1OC)C(=O)/C(=C/c1cc[n+](Cc3ccccc3[N+](=O)[O-])cc1C(C)=O)OC2` [10n, (Z)-3-Acetyl-4-((6,7-dimethoxy-4-oxoisochroman-3-ylidene)methyl)-1-(2-nitrobenzyl)pyridin-1-ium Bromide]: it took 13.6 ± 0.72 nM to reach half-maximal inhibition (IC50).

For orientation: IC50 means the concentration needed to halve the response being measured. Read a low IC50 as greater potency.
